From ChEMBL document CHEMBL5212743, “Selectivity Literature for EUbOPEN Chemogenomics Library wave 3” (2023)

Assays:
[1] = target: Polycomb protein EED (Homo sapiens) (UniProt O75530); assay: Selectivity interaction (Reader proteins panel (DSF assay)) EUB0000034d EED
[2] = target: WD repeat-containing protein 5 (Homo sapiens) (UniProt P61964); assay: Selectivity interaction (Reader proteins panel (DSF assay)) EUB0000034d WDR5
[3] = target: Growth/differentiation factor 2 (Homo sapiens) (UniProt Q9UK05); assay: Selectivity interaction (Reader proteins panel (DSF assay)) EUB0000034d GDF2
Peregrin (Homo sapiens) = Peregrin (Homo sapiens) (UniProt P55201); assay: Selectivity interaction (Reader proteins panel (DSF assay)) EUB0000034d BRPF1
[4] = target: Histone-lysine N-methyltransferase SETD2 (Homo sapiens, UniProt Q9BYW2); assay: Selectivity interaction (Methyltransferase panel) EUB0000034d SETD2; settings: at 10 µM
[5] = target: E3 ubiquitin-protein ligase UHRF1 (Homo sapiens) (UniProt Q96T88); assay: Selectivity interaction (Reader proteins panel (DSF assay)) EUB0000034d UHRF1
Sequence of E3 ubiquitin-protein ligase UHRF1 (Homo sapiens) (Q96T88 whole entry, the tested form may be a part): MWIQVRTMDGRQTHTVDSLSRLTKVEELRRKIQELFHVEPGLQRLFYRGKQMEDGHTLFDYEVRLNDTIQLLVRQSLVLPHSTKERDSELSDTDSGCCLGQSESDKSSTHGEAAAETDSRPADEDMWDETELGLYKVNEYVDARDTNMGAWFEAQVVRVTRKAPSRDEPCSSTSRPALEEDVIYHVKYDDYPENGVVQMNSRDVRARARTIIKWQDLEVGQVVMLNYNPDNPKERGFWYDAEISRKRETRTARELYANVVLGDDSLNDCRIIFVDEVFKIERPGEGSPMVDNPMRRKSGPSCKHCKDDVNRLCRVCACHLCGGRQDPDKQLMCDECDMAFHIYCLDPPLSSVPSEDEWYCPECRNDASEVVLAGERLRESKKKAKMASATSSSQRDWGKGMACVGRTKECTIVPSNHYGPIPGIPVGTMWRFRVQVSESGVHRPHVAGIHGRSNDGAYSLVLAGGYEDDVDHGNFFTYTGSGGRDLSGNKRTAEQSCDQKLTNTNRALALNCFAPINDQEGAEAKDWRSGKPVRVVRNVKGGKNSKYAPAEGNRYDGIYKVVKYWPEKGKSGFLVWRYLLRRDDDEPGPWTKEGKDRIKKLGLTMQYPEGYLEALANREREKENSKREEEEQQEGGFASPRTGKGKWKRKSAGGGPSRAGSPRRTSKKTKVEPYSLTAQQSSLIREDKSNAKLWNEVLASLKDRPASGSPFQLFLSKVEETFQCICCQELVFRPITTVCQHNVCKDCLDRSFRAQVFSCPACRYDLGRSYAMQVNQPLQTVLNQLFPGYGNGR

[6] = target: AT-rich interactive domain-containing protein 4A (Homo sapiens) (UniProt P29374); assay: Selectivity interaction (Reader proteins panel (DSF assay)) EUB0000034d ARID4A
[7] = target: RNA-binding protein FXR1 (Homo sapiens) (UniProt P51114); assay: Selectivity interaction (Reader proteins panel (DSF assay)) EUB0000034d FXR1
Sequence of RNA-binding protein FXR1 (Homo sapiens) (P51114 whole entry, the tested form may be a part): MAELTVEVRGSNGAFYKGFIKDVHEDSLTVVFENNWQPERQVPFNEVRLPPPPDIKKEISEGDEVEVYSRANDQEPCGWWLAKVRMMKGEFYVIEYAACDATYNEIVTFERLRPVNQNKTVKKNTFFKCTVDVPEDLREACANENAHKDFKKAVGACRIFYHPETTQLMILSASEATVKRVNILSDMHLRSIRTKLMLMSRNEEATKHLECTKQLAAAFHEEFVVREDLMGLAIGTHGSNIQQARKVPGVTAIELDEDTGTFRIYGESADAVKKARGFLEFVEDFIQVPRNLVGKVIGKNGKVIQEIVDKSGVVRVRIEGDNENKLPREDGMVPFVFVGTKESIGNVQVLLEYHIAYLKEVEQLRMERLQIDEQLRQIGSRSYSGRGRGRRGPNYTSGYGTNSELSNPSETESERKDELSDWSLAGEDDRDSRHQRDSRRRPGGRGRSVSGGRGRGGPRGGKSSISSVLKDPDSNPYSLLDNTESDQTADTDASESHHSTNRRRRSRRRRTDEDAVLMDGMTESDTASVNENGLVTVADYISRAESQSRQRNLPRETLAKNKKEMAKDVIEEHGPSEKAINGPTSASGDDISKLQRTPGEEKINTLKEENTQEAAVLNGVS

[8] = target: Staphylococcal nuclease domain-containing protein 1 (Homo sapiens) (UniProt Q7KZF4); assay: Selectivity interaction (Reader proteins panel (DSF assay)) EUB0000034d SND1
[9] = target: Tudor domain-containing protein 3 (Homo sapiens) (UniProt Q9H7E2); assay: Selectivity interaction (Reader proteins panel (DSF assay)) EUB0000034d TDRD3
[10] = target: T1, Cyclin-G-associated kinase (Homo sapiens) (UniProt O14976); assay: Selectivity interaction (KinomeScan (DiscoverX)) EUB0000691a GAK; settings: at 10 µM
T1 sequence (whole entry): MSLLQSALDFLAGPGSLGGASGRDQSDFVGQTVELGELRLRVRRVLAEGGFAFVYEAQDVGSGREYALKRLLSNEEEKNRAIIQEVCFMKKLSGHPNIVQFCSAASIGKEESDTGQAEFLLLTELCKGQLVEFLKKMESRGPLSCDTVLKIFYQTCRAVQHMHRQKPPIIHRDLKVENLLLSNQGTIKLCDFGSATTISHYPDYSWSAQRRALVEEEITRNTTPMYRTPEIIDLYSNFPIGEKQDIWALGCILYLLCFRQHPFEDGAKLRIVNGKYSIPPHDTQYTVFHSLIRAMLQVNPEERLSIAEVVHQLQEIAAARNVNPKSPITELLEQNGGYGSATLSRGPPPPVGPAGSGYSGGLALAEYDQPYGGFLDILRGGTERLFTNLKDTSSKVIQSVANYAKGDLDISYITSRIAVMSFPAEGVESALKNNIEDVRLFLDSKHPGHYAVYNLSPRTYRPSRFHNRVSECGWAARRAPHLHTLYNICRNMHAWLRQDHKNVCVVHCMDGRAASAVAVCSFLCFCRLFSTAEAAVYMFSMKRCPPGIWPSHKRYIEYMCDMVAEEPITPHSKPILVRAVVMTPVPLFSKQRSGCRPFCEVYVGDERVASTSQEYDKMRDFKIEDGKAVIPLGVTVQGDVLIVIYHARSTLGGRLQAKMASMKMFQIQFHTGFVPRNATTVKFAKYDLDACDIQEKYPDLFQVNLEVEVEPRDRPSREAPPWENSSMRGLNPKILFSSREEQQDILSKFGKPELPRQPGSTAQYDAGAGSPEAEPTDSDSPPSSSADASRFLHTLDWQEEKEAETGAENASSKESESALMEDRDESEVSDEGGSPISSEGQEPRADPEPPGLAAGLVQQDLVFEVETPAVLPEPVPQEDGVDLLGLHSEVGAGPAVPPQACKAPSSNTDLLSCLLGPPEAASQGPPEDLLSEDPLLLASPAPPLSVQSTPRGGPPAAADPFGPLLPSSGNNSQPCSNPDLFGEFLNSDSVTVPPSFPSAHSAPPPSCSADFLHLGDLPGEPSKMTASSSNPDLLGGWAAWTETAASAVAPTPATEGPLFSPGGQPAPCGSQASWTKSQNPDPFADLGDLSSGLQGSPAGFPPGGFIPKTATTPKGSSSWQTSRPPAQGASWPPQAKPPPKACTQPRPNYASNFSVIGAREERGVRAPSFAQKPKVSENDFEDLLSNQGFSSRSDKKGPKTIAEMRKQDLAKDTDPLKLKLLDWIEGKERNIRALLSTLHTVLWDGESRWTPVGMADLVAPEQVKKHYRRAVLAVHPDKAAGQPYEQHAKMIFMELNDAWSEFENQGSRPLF

[11] = target: Serine/threonine-protein kinase 16 (Homo sapiens, UniProt O75716); assay: Selectivity interaction (KinomeScan (DiscoverX)) EUB0000691a STK16; settings: at 10 µM
Sequence of Serine/threonine-protein kinase 16 (O75716 whole entry): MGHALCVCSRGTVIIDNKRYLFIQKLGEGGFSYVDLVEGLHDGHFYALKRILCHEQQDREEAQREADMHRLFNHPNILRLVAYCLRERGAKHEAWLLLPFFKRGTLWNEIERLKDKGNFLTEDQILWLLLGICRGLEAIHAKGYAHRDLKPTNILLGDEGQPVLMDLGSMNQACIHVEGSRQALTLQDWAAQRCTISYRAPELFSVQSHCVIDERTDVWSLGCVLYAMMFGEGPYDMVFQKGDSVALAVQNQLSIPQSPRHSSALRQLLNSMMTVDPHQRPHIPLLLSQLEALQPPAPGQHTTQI

[12] = target: Dual specificity protein kinase TTK (Homo sapiens) (UniProt P33981); assay: Selectivity interaction (KinomeScan (DiscoverX)) EUB0000691a TTK; settings: at 10 µM
Sequence of Dual specificity protein kinase TTK (Homo sapiens) (P33981 whole entry): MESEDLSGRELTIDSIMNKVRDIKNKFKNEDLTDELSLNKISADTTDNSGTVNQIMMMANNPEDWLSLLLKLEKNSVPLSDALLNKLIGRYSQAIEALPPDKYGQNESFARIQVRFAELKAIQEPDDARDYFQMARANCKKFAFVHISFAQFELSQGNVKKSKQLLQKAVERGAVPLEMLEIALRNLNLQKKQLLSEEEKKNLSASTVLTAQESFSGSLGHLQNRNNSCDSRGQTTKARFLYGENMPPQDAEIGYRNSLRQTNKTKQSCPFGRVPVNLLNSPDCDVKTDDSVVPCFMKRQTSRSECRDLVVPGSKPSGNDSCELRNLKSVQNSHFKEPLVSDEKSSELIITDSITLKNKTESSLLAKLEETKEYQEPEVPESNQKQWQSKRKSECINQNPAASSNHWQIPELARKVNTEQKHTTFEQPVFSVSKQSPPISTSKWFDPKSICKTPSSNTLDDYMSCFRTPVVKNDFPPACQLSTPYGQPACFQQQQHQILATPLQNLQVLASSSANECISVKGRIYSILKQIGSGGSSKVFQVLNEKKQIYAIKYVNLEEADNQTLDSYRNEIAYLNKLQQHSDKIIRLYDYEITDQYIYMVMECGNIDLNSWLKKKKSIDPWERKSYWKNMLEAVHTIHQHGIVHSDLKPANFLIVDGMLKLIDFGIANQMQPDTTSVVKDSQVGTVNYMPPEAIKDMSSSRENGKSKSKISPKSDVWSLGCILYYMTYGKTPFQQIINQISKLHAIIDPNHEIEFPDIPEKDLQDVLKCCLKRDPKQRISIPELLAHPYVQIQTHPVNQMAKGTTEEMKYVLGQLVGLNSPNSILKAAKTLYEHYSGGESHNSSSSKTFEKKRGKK

[13] = target: Dual specificity mitogen-activated protein kinase kinase 4 (Homo sapiens) (UniProt P45985); assay: Selectivity interaction (KinomeScan (DiscoverX)) EUB0000691a MAP2K4; settings: at 10 µM
[14] = target: Tyrosine-protein kinase JAK1 (Homo sapiens, UniProt P23458); assay: Selectivity interaction (KinomeScan (DiscoverX)) EUB0000691a JAK1@kinase 1; settings: at 10 µM
Sequence of Tyrosine-protein kinase JAK1 (P23458 whole entry, the tested form may be a part): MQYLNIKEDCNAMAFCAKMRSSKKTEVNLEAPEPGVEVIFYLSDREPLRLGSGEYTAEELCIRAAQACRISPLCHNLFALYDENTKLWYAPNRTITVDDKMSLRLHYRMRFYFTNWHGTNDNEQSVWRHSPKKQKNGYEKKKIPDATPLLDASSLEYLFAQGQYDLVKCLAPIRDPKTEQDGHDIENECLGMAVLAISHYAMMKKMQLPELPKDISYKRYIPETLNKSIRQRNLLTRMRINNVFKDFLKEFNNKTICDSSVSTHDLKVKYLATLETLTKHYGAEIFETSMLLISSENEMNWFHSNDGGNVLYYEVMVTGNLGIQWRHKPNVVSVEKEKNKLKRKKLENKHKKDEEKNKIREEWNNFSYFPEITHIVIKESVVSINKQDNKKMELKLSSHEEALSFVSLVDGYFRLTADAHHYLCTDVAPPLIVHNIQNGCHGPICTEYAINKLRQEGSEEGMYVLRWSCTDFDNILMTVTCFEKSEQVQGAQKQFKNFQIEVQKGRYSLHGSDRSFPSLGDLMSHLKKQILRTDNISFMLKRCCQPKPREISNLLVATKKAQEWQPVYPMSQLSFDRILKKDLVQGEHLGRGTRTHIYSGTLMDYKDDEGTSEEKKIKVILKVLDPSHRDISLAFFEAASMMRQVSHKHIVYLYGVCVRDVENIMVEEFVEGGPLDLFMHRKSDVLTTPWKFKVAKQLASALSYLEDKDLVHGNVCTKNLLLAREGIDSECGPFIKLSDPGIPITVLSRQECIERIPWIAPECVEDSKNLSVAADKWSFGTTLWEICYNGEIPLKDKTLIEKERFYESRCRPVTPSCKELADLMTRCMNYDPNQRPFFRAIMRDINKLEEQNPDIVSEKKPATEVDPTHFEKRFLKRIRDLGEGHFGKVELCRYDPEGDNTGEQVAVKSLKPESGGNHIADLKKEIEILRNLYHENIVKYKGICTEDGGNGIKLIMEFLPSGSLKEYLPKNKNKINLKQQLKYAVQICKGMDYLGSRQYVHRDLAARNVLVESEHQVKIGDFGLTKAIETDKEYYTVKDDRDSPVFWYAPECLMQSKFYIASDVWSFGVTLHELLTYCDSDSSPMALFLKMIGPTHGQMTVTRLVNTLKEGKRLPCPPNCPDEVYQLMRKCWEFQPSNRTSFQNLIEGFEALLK

[15] = target: Phosphatidylinositol 3-kinase C2 domain-containing subunit gamma (Homo sapiens) (UniProt O75747); assay: Selectivity interaction (KinomeScan (DiscoverX)) EUB0000691a PIK3C2G; settings: at 10 µM
Activated CDC42 kinase 1 = Activated CDC42 kinase 1 (Homo sapiens, UniProt Q07912); assay: Selectivity interaction (KinaseProfiler™ (Millipore)) EUB0000640a TNK2; settings: at 1 µM
[16] = target: Proto-oncogene tyrosine-protein kinase ROS (Homo sapiens) (UniProt P08922); assay: Selectivity interaction (KinaseProfiler™ (Millipore)) EUB0000640a ROS1; settings: at 1 µM
[17] = target: Tyrosine-protein kinase TXK (Homo sapiens) (UniProt P42681); assay: Selectivity interaction (KinaseProfiler™ (Millipore)) EUB0000640a TXK; settings: at 1 µM
Sequence of Tyrosine-protein kinase TXK (Homo sapiens) (P42681 whole entry): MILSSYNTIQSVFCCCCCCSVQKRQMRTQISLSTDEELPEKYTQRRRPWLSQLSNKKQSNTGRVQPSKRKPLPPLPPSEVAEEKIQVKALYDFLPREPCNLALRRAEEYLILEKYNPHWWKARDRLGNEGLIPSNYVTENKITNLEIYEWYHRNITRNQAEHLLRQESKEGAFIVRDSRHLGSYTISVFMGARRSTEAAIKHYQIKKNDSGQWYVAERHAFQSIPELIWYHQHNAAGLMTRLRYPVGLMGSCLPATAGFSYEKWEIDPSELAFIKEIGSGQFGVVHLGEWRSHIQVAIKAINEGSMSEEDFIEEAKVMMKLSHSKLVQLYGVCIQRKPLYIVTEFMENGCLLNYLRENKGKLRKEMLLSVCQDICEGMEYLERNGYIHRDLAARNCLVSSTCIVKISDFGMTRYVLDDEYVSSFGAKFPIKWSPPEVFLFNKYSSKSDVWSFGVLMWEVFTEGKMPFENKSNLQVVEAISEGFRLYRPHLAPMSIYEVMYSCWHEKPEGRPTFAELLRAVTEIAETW

[18] = target: T2, Cytoplasmic tyrosine-protein kinase BMX (Homo sapiens) (UniProt P51813); assay: Selectivity interaction (KinaseProfiler™ (Millipore)) EUB0000640a BMX; settings: at 1 µM
T2 sequence (whole entry): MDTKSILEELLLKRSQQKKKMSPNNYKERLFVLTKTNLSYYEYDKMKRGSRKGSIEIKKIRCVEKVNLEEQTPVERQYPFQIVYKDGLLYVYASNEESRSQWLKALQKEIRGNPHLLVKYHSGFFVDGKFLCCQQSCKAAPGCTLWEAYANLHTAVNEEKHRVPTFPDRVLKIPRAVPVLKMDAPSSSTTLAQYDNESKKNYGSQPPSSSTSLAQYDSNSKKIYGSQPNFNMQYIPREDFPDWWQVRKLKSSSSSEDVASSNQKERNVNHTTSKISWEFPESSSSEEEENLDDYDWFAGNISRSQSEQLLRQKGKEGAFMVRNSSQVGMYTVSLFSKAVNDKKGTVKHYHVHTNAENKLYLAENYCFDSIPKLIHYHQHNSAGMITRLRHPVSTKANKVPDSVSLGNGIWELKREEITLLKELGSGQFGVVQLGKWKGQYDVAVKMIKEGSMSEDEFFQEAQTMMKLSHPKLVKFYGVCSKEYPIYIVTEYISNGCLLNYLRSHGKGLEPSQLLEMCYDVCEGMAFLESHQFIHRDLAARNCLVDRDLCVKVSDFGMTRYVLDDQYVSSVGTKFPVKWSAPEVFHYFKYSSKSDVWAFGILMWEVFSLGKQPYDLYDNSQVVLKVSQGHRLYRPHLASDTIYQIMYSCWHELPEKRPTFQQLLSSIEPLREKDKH

Sequence of Polycomb protein EED (Homo sapiens) (O75530 2-441 limits assumed): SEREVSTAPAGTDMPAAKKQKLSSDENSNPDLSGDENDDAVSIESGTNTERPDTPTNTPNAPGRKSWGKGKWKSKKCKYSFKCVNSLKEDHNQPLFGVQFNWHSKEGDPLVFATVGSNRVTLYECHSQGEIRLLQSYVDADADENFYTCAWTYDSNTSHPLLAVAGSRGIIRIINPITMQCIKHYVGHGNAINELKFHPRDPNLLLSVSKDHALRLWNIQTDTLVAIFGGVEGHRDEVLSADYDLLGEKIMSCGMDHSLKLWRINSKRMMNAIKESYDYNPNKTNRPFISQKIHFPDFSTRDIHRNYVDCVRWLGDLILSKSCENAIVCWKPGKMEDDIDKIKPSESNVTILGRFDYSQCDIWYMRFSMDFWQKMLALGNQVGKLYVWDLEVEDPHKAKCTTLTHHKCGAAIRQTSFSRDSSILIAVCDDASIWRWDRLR

CC(C)Oc1ccc(-c2c[nH]cc2CN(C)CCN)cc1
dTm [1]: < 2 K
dTm [2]: < 2 K
dTm [3]: < 2 K
dTm (Peregrin (Homo sapiens)): < 2 K
% activity remaining [4]: 80%
dTm [5]: < 2 K
dTm [6]: < 2 K
dTm [7]: < 2 K
dTm [8]: < 2 K
dTm [9]: < 2 K

COc1ncc(-c2ccc3nccc(-c4ccnnc4)c3c2)cc1NS(=O)(=O)c1ccc(F)cc1F
% of control [10]: 0.2%
% of control [11]: 3.4%
% of control [12]: 4%
% of control [13]: 5.9%
% of control [14]: 2.2%
% of control [15]: 4.4%

C[C@@H]1CCc2ncc(F)cc2[C@H]2CCCN2c2ccn3ncc(c3n2)C(=O)N1
% of control (Activated CDC42 kinase 1): 10%
% of control [16]: 12%
% of control [17]: 14%
% of control [18]: 15%
